Measured values reported in patent publication US9334267B2, “RAF inhibitor compounds” (Deciphera Pharmaceuticals, LLC, priority 2012, dated 2016).

Key:
human wild type C-Raf = biological target: T1, human wild type C-Raf (Homo sapiens, UniProt P04049); assay: Enzymatic assay of C-Raf kinase activity (Raf/MEK1 ATPase, coupled PK/LDH, A340); format: biochemical; conditions: read-out: Enzyme IC50, nM C-Raf
T1 construct: made in house
Description: Test compounds are evaluated for their inhibitory activities against one or more of human wild type B-Raf, human wild type C-Raf, human B-Raf V600E, human B-Raf V600E+T529I or human B-Raf V600E+G468A. T529I is a threonine to isoleucine B-Raf gatekeeper mutation and G468A is a B-Raf secondary mutation at G1403C in exon 11. The enzymatic assays of B-Raf, C-Raf and B-Raf mutations evaluate a property of Raf and MEK1 complex, which in the presence of ATP, catalyzes an enhanced ATP hydrolysis (Rominger, et al, Arch. Biochem. Biophys. 2007, 464: 130-137; US Patent Publication No. 2006/0211073). The ADP formed is monitored by the well-known coupled PK/LDH (pyruvate kinase/lactate dehydrogenase) system in the form of NADH oxidation, which can be monitored and detected spectrophotometrically by absorbance at 340 nm (A340; for principal of the method see Schindler et al, Science, 2000, 289: 1938-1942). Raf activated MEK1 ATPase activity is a property shared by all forms of Raf proteins.
Test compounds are evaluated for their inhibitory activities against one or more of wild type B-Raf, wild type C-Raf, B-Raf V600E, B-Raf V600E+T529I and B-Raf V600E+G468A. T529I is a B-Raf gatekeeper mutation and G468A is a B-Raf secondary mutation. The enzymatic assays of B-Raf, C-Raf and B-Raf mutations evaluate a property of Raf and MEK1 complex, which in the presence of ATP, catalyzes an enhanced ATP hydrolysis (Rominger, et al, Arch. Biochem. Biophys. 2007, 464: 130-137). The ADP formed is monitored by the well-known coupled PK/LDH (pyruvate kinase/lactate dehydrogenase) system in the form of NADH oxidation, which can be monitored and detected by absorbance at 340 nm (A340; for principal of the method see Schindler et al, Science, 2000, 289: 1938-1942). Raf activated MEK1 ATPase activity is a property shared by all forms of Raf proteins. In the B-Raf wild type enzymatic assay, the reaction mixture contains 1.2 nM B-Raf, 30 nM MEK1, 1000 uM ATP, 3.5 units (per 100 ul) of PK, 5 units (per 100 ul) of LDH, 1 mM phosphoenol pyruvate (PEP), and 280 uM of NADH. In the C-Raf assay, the reaction mixture contains 0.6 nM C-Raf, 26 nM MEK1, 2000 uM ATP, and the same amount of PK, LDH, PEP and NADH as above. In the B-Raf V600E assay, the reaction mixture contains […] B-Raf V600E, 26 nM MEK1, 200 uM ATP and the same amount of PK, LDH, PEP and NADH as above. In the B-RafV600E+T529I assay, the reaction mixture contains 6.2 nM B-Raf V600E+T529I, 30 nM MEK1, 200 uM ATP and the same amount of PK, LDH, PEP and NADH as above. In the B-Raf V600E+G468A assay, the reaction mixture contains 3.5 nM B-Raf, 30 nM MEK1, 200 uM ATP and the same amount of PK, LDH, PEP and NADH as above. All assays are started by mixing the above mixture with test compound and monitoring at A340 continuously for approximately 5 hr. […] In the aforementioned assays, the enzyme constructs can be screened prior to or after cleavage of the N-terminal purification tag.

[1] = test system: phospho-ERK in HCT-116 cells; assay: HCT-116 cell pERK assay (AlphaScreen SureFire); format: cell-based; conditions: Homo sapiens, B-Raf wild type, K-Ras mutation, 4 hours, range over the listed examples, read-out: phospho-ERK signal IC50
Description: Examples of Formula I are tested against HCT-116 cells harboring wild type B-Raf and K-Ras mutation. The phospho-ERK activities are evaluated as described below.
HCT-116 cells (catalog #CCL-247) are obtained from the American Type Culture Collection (ATCC, Manassas, Va.). Briefly, cells are grown in McCoy's 5A supplemented with 10% characterized fetal bovine serum (Invitrogen, Carlsbad, Calif.), and 1% Penicillin/Streptomycin/L-Glutamine at 37 degrees Celsius, 5% CO2, and 95% humidity. Cells are allowed to expand until reaching 75-90% confluency at which point they are subcultured or harvested for assay use. HCT-116 cells suspended in complete media are added to 384-well tissue culture treated plates (3×10^5 cells/mL; 7,500 cells per well). The cells are incubated overnight at 37 degrees Celsius, 5% CO2, and 95% humidity. Next, test compound or DMSO diluted in complete media is added to the wells (0.25% final DMSO concentration). The plates are then incubated for 4 hours at 37 degrees Celsius, 5% CO2, and 95% humidity. Following compound incubation, the cells are lysed at 4° C. for 20 minutes with shaking. Cell lysates are centrifuged and the supernatant is transferred to a new plate. An aliquot of each lysate is transferred to a white 384-well assay plate. Using the AlphaScreen SureFire pERK kit (Perkin-Elmer, Waltham, Mass.), an acceptor bead mixture is added to each well and incubated for 2 h at room temperature in the dark. A donor bead mixture is then added to each well and incubated for 2 h at room temperature in the dark. Plates are read using a Synergy2 plate reader (Biotek, Winooski, Vt.) in Plate Mode with Timing Control. Read: (F)1: excitation: 680/30 nm, emission: Plug. 2: Excitation: Plug, emission: 570/100 nm. Top mirror 635 nm. Data is analyzed using Prism software (Graphpad, San Diego, Calif.) to calculate IC50 values and Excel software (Microsoft, Redmond, Wash.) to calculate stimulation compared to control.

[2] = test system: phospho-ERK in A375 (BRAF V600E) xenograft; assay: A375 mouse xenograft pharmacodynamic assay (tumor phospho-ERK by ELISA); format: in vivo; conditions: A375 xenografts in nude female mice, 20 mg/kg oral (gavage), vs vehicle
Description: To evaluate the in vivo pharmacodynamic (PD) effects of compounds of Formula I, an A375 (BRAF V600E) xenograft model is employed. Briefly, 10×10^6 A375 tumor cells (ATCC) are prepared in a 1:1 matrigel mix (0.2 mL total volume) and implanted by subcutaneous injection in hind leg of nude female mice. A total of 4 mice each for each dosing group are employed. Treatment is initiated with oral administration (gavage) of test compound or vehicle (20% captisol, 25 mM phosphate, pH2.0) in 0.2 mL volume when average tumor size reaches approximately 300 mg. After a fixed time interval, the tumors are harvested and the phospho-ERK levels are measured by ELISA (Enzyme-linked immunosorbent assay). Treated groups are compared to the vehicle control group to calculate % inhibition.

A375res cells [3] = test system: A375res cells
A375res cells [4] = assay: Proliferation assay in vemurafenib-resistant melanoma cells A375res; conditions: Homo sapiens, 72 h, read-out: absolute IC50 values

T1 sequence (P04049 whole entry): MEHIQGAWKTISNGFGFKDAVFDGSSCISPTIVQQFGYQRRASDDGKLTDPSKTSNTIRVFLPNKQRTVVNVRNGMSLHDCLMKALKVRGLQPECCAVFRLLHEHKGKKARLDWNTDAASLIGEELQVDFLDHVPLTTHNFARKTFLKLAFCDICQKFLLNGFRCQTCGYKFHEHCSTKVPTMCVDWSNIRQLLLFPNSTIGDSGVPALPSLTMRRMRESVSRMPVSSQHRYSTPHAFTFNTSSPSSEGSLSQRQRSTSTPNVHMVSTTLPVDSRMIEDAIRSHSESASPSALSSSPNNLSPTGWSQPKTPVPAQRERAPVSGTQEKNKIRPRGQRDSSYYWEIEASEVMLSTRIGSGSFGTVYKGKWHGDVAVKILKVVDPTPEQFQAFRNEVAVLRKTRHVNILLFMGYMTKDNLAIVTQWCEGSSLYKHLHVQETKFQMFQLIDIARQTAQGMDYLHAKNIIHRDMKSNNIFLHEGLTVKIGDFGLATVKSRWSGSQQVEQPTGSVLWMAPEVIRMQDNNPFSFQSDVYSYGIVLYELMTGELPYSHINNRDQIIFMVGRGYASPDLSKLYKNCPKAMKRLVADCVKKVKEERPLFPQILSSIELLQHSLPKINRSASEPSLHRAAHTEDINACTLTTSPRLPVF

Row | Structure (SMILES) | IC50 (human wild type C-Raf) [nM] | IC50 [1] [nM] | Measured pERK inhibition 2 h post dose [2] [% inhibition] | IC50 shift A375 to A375res (A375res cells [3]) | IC50 (A375res cells [4]) [nM]
1 | CNc1ncc2cc(-c3cc(NC(=O)NCCC4(C)CC4)c(F)cc3C)c(C)nc2n1 [Example 24, 1-(2-Fluoro-4-methyl-5-(7-methyl-2-(methylamino)pyrido[2,3-d]pyrimidin-6-yl)phenyl)-3-(2-(1-methylcyclopropyl)ethyl)urea] | < 150 | 2 to 472 | 88 | 0.6-1.9 fold | 15 to 1100
2 | Cc1cc(F)c(NC(=O)NCCC(C)(C)F)cc1-c1cc2cnc(NC3COC3)nc2nc1C [Example 25, 1-(3-Fluoro-3-methylbutyl)-3-(2-fluoro-4-methyl-5-(7-methyl-2-(oxetan-3-ylamino)pyrido[2,3-d]pyrimidin-6-yl)phenyl)urea] | < 150 | 2 to 472 | – | 0.6-1.9 fold | 15 to 1100
3 | CNc1ncc2cc(-c3cc(NC(=O)NCCC(C)(C)C)c(F)cc3C)cnc2n1 [Example 35, 1-(3,3-Dimethylbutyl)-3-[2-fluoro-4-methyl-5-(2-methylaminopyrido[2,3-d]pyrimidin-6-yl)phenyl]urea] | < 150 | 2 to 472 | 79 | 0.6-1.9 fold | 15 to 1100
